{"source": "paper PMC9496282", "about": "“Analysis of Phosphatase Activity in a Droplet-Based Microfluidic Chip” (Biosensors, 2022)", "target": "T1, dual specificity phosphatase 22 (DUSP22) (Homo sapiens, UniProt Q9NRW4)", "T1 construct": "recombinant DUSP22 from pET-28a(+)-DUSP22, purified from E. coli BL21(DE3)", "T1 sequence (Q9NRW4 2-184)": "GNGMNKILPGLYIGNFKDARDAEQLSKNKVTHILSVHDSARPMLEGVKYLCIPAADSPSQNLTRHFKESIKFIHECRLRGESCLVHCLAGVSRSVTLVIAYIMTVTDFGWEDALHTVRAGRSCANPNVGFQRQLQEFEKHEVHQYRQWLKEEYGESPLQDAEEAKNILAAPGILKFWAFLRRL", "assay": "fluorescent 3-OMFP phosphatase inhibition assay in droplet microfluidic chip (microwell plate IC50 […])", "format": "biochemical", "data": [{"compound": "CCN(N=O)c1ccc(O)c(O)c1", "note": "[ethyl-3,4-dephostatin]", "values": [{"measurement": "IC50", "result": "5.79 ± 1.09", "unit": "µM"}]}]}
